Measurements reported in publication doi:10.1101/2020.01.06.895540v1 (biorxiv, 2020).

How the values were obtained:
Test in all cases: cell-based
Design in all cases: species or system Hana3A
[1] = biological target: T1, hOR11H12 (Homo sapiens, UniProt B2RN74)
T1 sequence (B2RN74 1-326): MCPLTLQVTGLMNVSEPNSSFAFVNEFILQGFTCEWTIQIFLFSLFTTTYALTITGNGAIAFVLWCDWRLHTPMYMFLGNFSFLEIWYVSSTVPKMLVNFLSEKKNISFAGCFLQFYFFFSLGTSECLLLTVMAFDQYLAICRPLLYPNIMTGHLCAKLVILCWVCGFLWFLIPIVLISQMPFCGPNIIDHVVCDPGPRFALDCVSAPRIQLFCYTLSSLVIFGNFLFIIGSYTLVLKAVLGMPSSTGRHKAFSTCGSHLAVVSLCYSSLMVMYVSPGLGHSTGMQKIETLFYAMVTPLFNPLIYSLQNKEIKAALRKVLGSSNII

[2] = biological target: T2, hOR8K5 (Homo sapiens, UniProt Q8NH50)
T2 sequence (Q8NH50 1-307): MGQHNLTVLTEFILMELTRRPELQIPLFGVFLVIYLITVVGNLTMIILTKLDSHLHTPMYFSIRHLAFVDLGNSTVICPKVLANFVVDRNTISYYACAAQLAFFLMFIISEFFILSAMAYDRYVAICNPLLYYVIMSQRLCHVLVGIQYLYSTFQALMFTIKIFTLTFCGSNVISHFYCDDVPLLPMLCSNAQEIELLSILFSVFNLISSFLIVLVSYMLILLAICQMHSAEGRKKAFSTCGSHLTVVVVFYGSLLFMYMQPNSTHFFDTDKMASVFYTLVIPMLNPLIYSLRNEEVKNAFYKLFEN

[3] = biological target: T3, hOR5R1 (Homo sapiens, UniProt Q8NH85)
T3 sequence (Q8NH85 1-324): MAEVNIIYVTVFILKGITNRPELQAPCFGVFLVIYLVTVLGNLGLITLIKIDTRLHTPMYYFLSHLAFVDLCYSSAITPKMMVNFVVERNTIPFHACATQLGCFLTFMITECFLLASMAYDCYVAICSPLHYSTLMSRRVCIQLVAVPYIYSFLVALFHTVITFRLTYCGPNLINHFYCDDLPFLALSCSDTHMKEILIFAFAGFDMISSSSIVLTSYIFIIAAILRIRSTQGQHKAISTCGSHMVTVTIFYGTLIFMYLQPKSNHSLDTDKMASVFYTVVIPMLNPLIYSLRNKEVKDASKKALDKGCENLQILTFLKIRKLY

[4] = biological target: T4, hOR8B2 (Homo sapiens, UniProt Q96RD0)
T4 sequence (Q96RD0 1-313): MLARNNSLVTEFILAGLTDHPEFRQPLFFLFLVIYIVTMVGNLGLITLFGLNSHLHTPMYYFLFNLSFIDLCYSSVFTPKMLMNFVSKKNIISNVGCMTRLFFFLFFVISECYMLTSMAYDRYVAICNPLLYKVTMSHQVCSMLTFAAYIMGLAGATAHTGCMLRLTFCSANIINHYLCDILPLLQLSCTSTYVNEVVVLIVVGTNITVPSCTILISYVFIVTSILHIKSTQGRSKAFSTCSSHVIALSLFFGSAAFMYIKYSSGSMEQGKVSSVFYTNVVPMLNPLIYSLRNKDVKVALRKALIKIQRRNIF

EC50 [1] | EC50 [2] | EC50 [3] | EC50 [4] | SMILES
> 1000 µM | > 1000 µM | 218 µM | 15 µM | O=C1CCOc2ccccc21 [4-chromanone]
16.3 µM | 4.5 µM | 12 µM | > 1000 µM | C=C(C)[C@@H]1CC=C(C)C(=O)C1 [R-carvone]
4.7 µM | > 1000 µM | 3.4 µM | > 1000 µM | CC(=O)c1ccccc1 [acetophenone]
91.9 µM | > 1000 µM | 10.2 µM | > 1000 µM | O=c1ccc2ccccc2o1 [coumarin]
